Measured values taken from patent US4542123A (Massachusetts Institute of Technology, priority 1982, dated 1985).

Legend:
[1] = in vivo; settings: rat, po, 100 mg/kg
[2] = Brain and plasma tyrosine ratios in fasted rats, tyrosine and glucose given concurrently (Example II, second set); settings: rat, brain, po, 100 mg/kg
[3] = Brain and serum tyrosine in fasted rats given tyrosine alone or tyrosine and glucose (Example III, Table 2); type: in vivo, Sprague-Dawley rats; settings: tyrosine 100 mg/kg alone; 90 min

N[C@@H](Cc1ccc(O)cc1)C(=O)O [Tyrosine, tyrosine]
Kp at 1 h ([1]; brain): 0.78
concentration at 1 h ([1]; serum): 20900 ng/mL
Kp at […] [2]: 0.77
Brain Tyrosine [3]: 23.0 ± 2.2 µg/mL
Brain/Serum (tyrosine) [3]: 1.02 ± 0.1
Serum Tyrosine/Serum LNAA [3]: .304
